# Target: T1, CDK9/CyclinT1 (Homo sapiens, UniProt P50750)
# T1 construct: purchased ProQinase/Reaction Biology, USA #0371-0345-1
# Experiment: CDK9/T1 ADPGlo kinase assay
# Format: biochemical
# Conditions: CDK9/CyclinT1 6 nM, ATP 10 microM, PDKtide 40 microM, 120 min RT
# Experimental: The testing compound was evaluated in 12 concentrations in a 1:3 dilution series, starting from 5microM as the highest concentration.
# In a white 384 microplate (Greiner bio-one, Austria #784904,) with 2 microL of 3-fold concentrated CDK9/CyclinT1 (ProQinase/Reaction Biology, USA #0371-0345-1, LOT.: 012), final concentration (f.c.) 6 nM, in 1×kinase buffer, 2 microL of compound (3× fold concentrated in f.c. 1.66% DMSO/H2O) was added and incubated at Room Temperature (RT) for 10 min. Then 2 microL of Substrate/ATP-Mix (3×PDKtide f.c. 40 microM, SignalChem Biotech, Canada via Biozol, Eching, Germany #P10-58, LOT.: L2230-7 and 3×UltraPure ATP f.c. 10 microM (ADP Glo Kinase assay, Promega GmbH, Germany #V9102)) were added, mixed and incubated for 120 min at RT.
# After incubation time, 5 microL of ADP Glo reagent (ready to use, ADP Glo Kinase assay, Promega GmbH, Germany #V9102) were added, mixed and incubated for 40 min at RT.
# In the last step, 10 microL of ADP Glo Detection reagent (ready to use, ADP Glo Kinase assay, Promega GmbH, Germany #V9102) were added, mixed and incubated for 30 min at RT.
# GloMax Discover GM3000 Reader (Promega GmbH, Germany 9700000249) was used for the readout.
# The inhibitor concentration was plotted against the luminescence to determine the IC50 using XLFit 5.5 (IDBS, Guildford) to fit to a sigmoidal dose response curve with a variable slope.
# T1 sequence (P50750 whole entry): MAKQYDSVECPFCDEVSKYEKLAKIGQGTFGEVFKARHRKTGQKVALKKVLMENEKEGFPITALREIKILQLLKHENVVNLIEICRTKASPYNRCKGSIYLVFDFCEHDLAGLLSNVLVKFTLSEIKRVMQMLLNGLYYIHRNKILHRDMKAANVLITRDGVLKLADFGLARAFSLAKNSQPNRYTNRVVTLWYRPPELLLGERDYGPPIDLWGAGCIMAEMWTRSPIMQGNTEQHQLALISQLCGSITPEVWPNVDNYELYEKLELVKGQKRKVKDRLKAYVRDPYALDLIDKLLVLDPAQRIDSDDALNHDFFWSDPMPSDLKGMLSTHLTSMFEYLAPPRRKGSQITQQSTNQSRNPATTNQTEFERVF
# T1 sequence (O60563 whole entry partner): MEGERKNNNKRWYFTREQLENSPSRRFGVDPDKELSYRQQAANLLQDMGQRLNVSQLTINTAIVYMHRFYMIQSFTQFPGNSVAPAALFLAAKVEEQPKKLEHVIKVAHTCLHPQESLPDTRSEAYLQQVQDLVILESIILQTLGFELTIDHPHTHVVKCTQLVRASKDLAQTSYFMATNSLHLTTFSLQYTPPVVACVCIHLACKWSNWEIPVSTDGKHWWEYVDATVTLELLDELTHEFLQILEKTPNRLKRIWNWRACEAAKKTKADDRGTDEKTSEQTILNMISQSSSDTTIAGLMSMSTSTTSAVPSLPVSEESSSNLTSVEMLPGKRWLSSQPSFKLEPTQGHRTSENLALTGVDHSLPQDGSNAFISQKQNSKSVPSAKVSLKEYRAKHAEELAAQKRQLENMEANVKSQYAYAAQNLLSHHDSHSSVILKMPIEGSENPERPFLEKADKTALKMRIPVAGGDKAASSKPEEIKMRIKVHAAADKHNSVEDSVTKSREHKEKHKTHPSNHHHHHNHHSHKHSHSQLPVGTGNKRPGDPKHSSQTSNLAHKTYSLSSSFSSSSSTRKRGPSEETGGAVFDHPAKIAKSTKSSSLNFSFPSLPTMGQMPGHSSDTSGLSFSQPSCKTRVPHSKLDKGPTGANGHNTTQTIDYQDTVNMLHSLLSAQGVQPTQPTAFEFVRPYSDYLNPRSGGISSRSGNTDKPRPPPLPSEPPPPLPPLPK
row,Structure (SMILES),IC50
1,"Fc1cccc(F)c1-c1nc(NC2CCC(N3CCOCC3)CC2)n2nccc2n1 (centres unmarked) [Example #70, 2-(2,6-difluorophenyl)-N-((1r,4r)-4-morpholinocyclohexyl)pyrazolo[1,5-a][1,3,5]triazin-4-amine]",< 0.02 µM
2,"Fc1cccc(Cl)c1-c1nc(Nc2cnn(C3CCN(C4CCOCC4)CC3)c2)n2nccc2n1 [Example #71, 2-(2-chloro-6-fluorophenyl)-N-(1-(1-(tetrahydro-2H-pyran-4-yl)piperidin-4-yl)-1H-pyrazol-4-yl)pyrazolo[1,5-a][1,3,5]triazin-4-amine]",< 0.2 µM
3,"Fc1cccc(F)c1-c1nc(Nc2cnn(C3CCN(C4CCOCC4)CC3)c2Cl)n2nccc2n1 [Example #73, N-(5-chloro-1-(1-(tetrahydro-2H-pyran-4-yl)piperidin-4-yl)-1H-pyrazol-4-yl)-2-(2,6-difluorophenyl)pyrazolo[1,5-a][1,3,5]triazin-4-amine]",< 1 µM
4,"Fc1cccc(Cl)c1-c1nc(N[C@H]2CC[C@H](N3CCOCC3)CC2)n2nccc2n1 [Example #76, 2-(2-chloro-6-fluorophenyl)-N-((1r,4r)-4-morpholinocyclohexyl)pyrazolo[1,5-a][1,3,5]triazin-4-amine]",< 0.2 µM
5,"Fc1cccc(F)c1-c1nc(Nc2cnn(C3CCN(CC4CC4)CC3)c2)n2nccc2n1 [Example #80, N-(1-(1-(cyclopropylmethyl)piperidin-4-yl)-1H-pyrazol-4-yl)-2-(2,6-difluorophenyl)pyrazolo[1,5-a][1,3,5]triazin-4-amine]",< 0.2 µM
6,"FCCN1CCC(n2cc(Nc3nc(-c4c(F)cccc4F)nc4ccnn34)cn2)CC1 [Example #81, 2-(2,6-difluorophenyl)-N-(1-(1-(2-fluoroethyl)piperidin-4-yl)-1H-pyrazol-4-yl)pyrazolo[1,5-a][1,3,5]triazin-4-amine]",< 0.2 µM
7,"COC(=O)N1CCC(n2cc(Nc3nc(-c4c(F)cccc4F)nc4ccnn34)cn2)CC1 [Example #82, methyl-4-(4-((2-(2,6-difluorophenyl)pyrazolo[1,5-a][1,3,5]triazin-4-yl)amino)-1H-pyrazol-1-yl)piperidine-1-carboxylate]",< 1 µM
8,"Fc1cccc(F)c1-c1nc(Nc2cnn(C3CCN(C4CC4)CC3)c2)n2nccc2n1 [Example #83, N-(1-(1-cyclopropylpiperidin-4-yl)-1H-pyrazol-4-yl)-2-(2,6-difluorophenyl)pyrazolo[1,5-a][1,3,5]triazin-4-amine]",< 0.2 µM
9,"Fc1cccc(F)c1-c1nc(Nc2cnn(C3CCN(C4COC4)CC3)c2)n2nccc2n1 [Example #84, 2-(2,6-difluorophenyl)-N-(1-(1-(oxetan-3-yl)piperidin-4-yl)-1H-pyrazol-4-yl)pyrazolo[1,5-a][1,3,5]triazin-4-amine]",< 1 µM
10,"C=CCCN1CCC(n2cc(Nc3nc(-c4c(F)cccc4F)nc4ccnn34)cn2)CC1 [Example #87, N-(1-(1-(but-3-en-1-yl)piperidin-4-yl)-1H-pyrazol-4-yl)-2-(2,6-difluorophenyl)pyrazolo[1,5-a][1,3,5]triazin-4-amine]",< 0.2 µM
11,"N#Cc1cnn2c(N[C@H]3CC[C@H](N4CCOCC4)CC3)nc(-c3c(F)cccc3F)nc12 [Example #93, 2-(2,6-difluorophenyl)-4-(((1r,4r)-4-morpholinocyclohexyl)amino)pyrazolo[1,5-a][1,3,5]triazine-8-carbonitrile]",< 0.2 µM
12,"Fc1cccc(F)c1-c1nc(N[C@H]2CC[C@H](N3CCOCC3)CC2)n2ncc(Br)c2n1 [Example #95, 8-bromo-2-(2,6-difluorophenyl)-N-((1r,4r)-4-morpholinocyclohexyl)pyrazolo[1,5-a][1,3,5]triazin-4-amine]",< 0.02 µM
13,"CC(C)(C)N1CCN(c2ccc(Nc3nc(-c4c(F)cccc4F)nc4c(Cl)cnn34)cc2)CC1 [Example #97, N-(4-(4-(tert-butyl)piperazin-1-yl)phenyl)-8-chloro-2-(2,6-difluorophenyl)pyrazolo[1,5-a][1,3,5]triazin-4-amine]",< 0.2 µM
14,"O=C(c1ccc(Nc2nc(-c3c(F)cccc3F)nc3c(Cl)cnn23)cc1)N1CCOCC1 [Example #98, (4-((8-chloro-2-(2,6-difluorophenyl)pyrazolo[1,5-a][1,3,5]triazin-4-yl)amino)phenyl)(morpholino)methanone]",< 1 µM
15,"Clc1cccc(Cl)c1-c1nc(Nc2cnn(C3CCN(C4CCOCC4)CC3)c2)n2ncc(Cl)c2n1 [Example #102, 8-chloro-2-(2,6-dichlorophenyl)-N-(1-(1-(tetrahydro-2H-pyran-4-yl)piperidin-4-yl)-1H-pyrazol-4-yl)pyrazolo[1,5-a][1,3,5]triazin-4-amine]",< 0.2 µM
16,"CCN(CCO)CCCC(C)Nc1nc(-c2c(F)cccc2F)nc2c(Cl)cnn12 (centres unmarked) [Example #107, 2-((4-((8-chloro-2-(2,6-difluorophenyl)pyrazolo[1,5-a][1,3,5]triazin-4-yl)amino)pentyl)(ethyl)amino)ethan-1-ol]",< 0.02 µM
17,"Fc1cccc(F)c1-c1nc(NC2CCC(N3CCOCC3)CC2)n2ncc(C(F)(F)F)c2n1 (centres unmarked) [Example #111, 2-(2,6-difluorophenyl)-N-((1r,4r)-4-morpholinocyclohexyl)-8-(trifluoromethyl)pyrazolo[1,5-a][1,3,5]triazin-4-amine]",< 0.2 µM
18,"N[C@H]1CC[C@@H](Nc2nc(-c3c(F)cccc3F)nc3c(Cl)cnn23)CC1 [Example #112, (1s,4s)-N1-(8-chloro-2-(2,6-difluorophenyl)pyrazolo[1,5-a][1,3,5]triazin-4-yl)cyclohexane-1,4-diamine]",< 0.2 µM

# Now from value to compound:
row,IC50,Structure (SMILES)
1,< 0.2 µM,"Fc1cccc(F)c1-c1nc(Nc2cnn(C3CCNCC3)c2)n2nccc2n1 [Example #74, 2-(2,6-difluorophenyl)-N-(1-(piperidin-4-yl)-1H-pyrazol-4-yl)pyrazolo[1,5-a][1,3,5]triazin-4-amine]"
2,< 0.2 µM,"Cc1cnn2c(Nc3cnn(C4CCN(C5CCOCC5)CC4)c3)nc(-c3c(F)cccc3F)nc12 [Example #77, 2-(2,6-difluorophenyl)-8-methyl-N-(1-(1-(tetrahydro-2H-pyran-4-yl)piperidin-4-yl)-1H-pyrazol-4-yl)pyrazolo[1,5-a][1,3,5]triazin-4-amine]"
3,< 0.2 µM,"N#Cc1cnn2c(Nc3cnn(C4CCN(C5CCOCC5)CC4)c3)nc(-c3c(F)cccc3F)nc12 [Example #88, 2-(2,6-difluorophenyl)-4-((1-(1-(tetrahydro-2H-pyran-4-yl)piperidin-4-yl)-1H-pyrazol-4-yl)amino)pyrazolo[1,5-a][1,3,5]triazine-8-carbonitrile]"
4,< 0.02 µM,"Fc1cccc(F)c1-c1nc(Nc2cnn(C3CCN(C4CCOCC4)CC3)c2)n2ncc(Cl)c2n1 [Example #92, 8-chloro-2-(2,6-difluorophenyl)-N-(1-(1-(tetrahydro-2H-pyran-4-yl)piperidin-4-yl)-1H-pyrazol-4-yl)pyrazolo[1,5-a][1,3,5]triazin-4-amine]"
5,< 0.2 µM,"Fc1cccc(F)c1-c1nc(Nc2cnn(C3CCN(C4CCOCC4)CC3)c2)n2ncc(Br)c2n1 [Example #94, 8-bromo-2-(2,6-difluorophenyl)-N-(1-(1-(tetrahydro-2H-pyran-4-yl)piperidin-4-yl)-1H-pyrazol-4-yl)pyrazolo[1,5-a][1,3,5]triazin-4-amine]"
6,< 0.2 µM,"CN1CCC(N2CCC(n3cc(Nc4nc(-c5c(F)cccc5F)nc5c(Cl)cnn45)cn3)CC2)CC1 [Example #96, 8-chloro-2-(2,6-difluorophenyl)-N-(1-(1′-methyl-[1,4′-bipiperidin]-4-yl)-1H-pyrazol-4-yl)pyrazolo[1,5-a][1,3,5]triazin-4-amine]"
7,< 0.2 µM,"Fc1cccc(F)c1-c1nc(Nc2cnn(C3CCN(C4CC4)CC3)c2)n2ncc(Cl)c2n1 [Example #99, 8-chloro-N-(1-(1-cyclopropylpiperidin-4-yl)-1H-pyrazol-4-yl)-2-(2,6-difluorophenyl)pyrazolo[1,5-a][1,3,5]triazin-4-amine]"
8,< 0.02 µM,"Fc1cccc(F)c1-c1nc(Nc2cnn(C3CCN(CC4CC4)CC3)c2)n2ncc(Cl)c2n1 [Example #100, 8-chloro-N-(1-(1-(cyclopropylmethyl)piperidin-4-yl)-1H-pyrazol-4-yl)-2-(2,6-difluorophenyl)pyrazolo[1,5-a][1,3,5]triazin-4-amine]"
9,< 0.02 µM,"Fc1cccc(Cl)c1-c1nc(Nc2cnn(C3CCN(C4CCOCC4)CC3)c2)n2ncc(Cl)c2n1 [Example #101, 8-chloro-2-(2-chloro-6-fluorophenyl)-N-(1-(1-(tetrahydro-2H-pyran-4-yl)piperidin-4-yl)-1H-pyrazol-4-yl)pyrazolo[1,5-a][1,3,5]triazin-4-amine]"
10,< 0.02 µM,"Fc1cccc(F)c1-c1nc(Nc2cnn(C3CCNCC3)c2)n2ncc(Cl)c2n1 [Example #103, 8-chloro-2-(2,6-difluorophenyl)-N-(1-(piperidin-4-yl)-1H-pyrazol-4-yl)pyrazolo[1,5-a][1,3,5]triazin-4-amine]"
11,< 0.02 µM,"Cn1cc(Nc2nc(-c3c(F)cccc3F)nc3c(Cl)cnn23)cn1 [Example #104, 8-chloro-2-(2,6-difluorophenyl)-N-(1-methyl-1H-pyrazol-4-yl)pyrazolo[1,5-a][1,3,5]triazin-4-amine]"

# Source: patent publication US20250019382A1, “NOVEL INHIBITORS OF CYCLIN-DEPENDENT KINASES” (Origenis Gmbh, priority 2021, published 2025)
